Data set [1] is described as follows: Increase of PGRN level in mouse microglial BV-2 cell relative to control. Format: functional.
A short description of data set [2]: Oral bioavailability in rat. Format: ADME, organism-based. The settings on record: in vivo, dose 10 mg/kg.
Data set [3] is described as follows: Oral bioavailability in mouse. Format: ADME, organism-based. The settings on record: in vivo, dose 10 mg/kg.
The nature of data set [4]: Intrinsic clearance in human hepatocytes. Format: ADME, cell-based, Hepatocyte.
A short description of data set [5]: Intrinsic clearance in cynomolgus monkey hepatocytes. Format: ADME, cell-based, Macaca fascicularis, Hepatocyte.
Data set [6] can be described thus: Protein binding in human assessed as unbound fraction. Format: ADME.
Data set [7] concerns the target Muscarinic acetylcholine receptor M3 (Homo sapiens, UniProt P20309). The data set can be described thus: Antagonist activity at muscarinic M3 receptor (unknown origin).
Data set [8] is described as follows: Apparent permeability from apical to basolateral side in dog MDCK-MDR1 cells. Format: ADME, cell-based, Canis lupus familiaris.
Data set [9] is described as follows: Aqueous solubility of compound in pH 7.4 PBS measured. Format: physicochemical.
Data set [10] can be described thus: Protein binding in mouse assessed as unbound fraction. Format: ADME.
The nature of data set [11]: Protein binding in rat assessed as unbound fraction. Format: ADME.
The nature of data set [12]: Protein binding in mouse brain assessed as unbound fraction. Format: ADME, tissue-based.
A short description of data set [13]: Protein binding in rat brain assessed as unbound fraction. Format: ADME, tissue-based.
Data set [14] is described as follows: Half life in rat hepatocytes. Format: ADME, cell-based, Hepatocyte.
Data set [15] in a line: Half life in cynomolgus monkey hepatocytes. Format: ADME, cell-based, Macaca fascicularis, Hepatocyte.
A short description of data set [16]: Half life in human hepatocytes. Format: ADME, cell-based, Hepatocyte.
Data set [17] is described as follows: Half life in po dosed mouse. Format: ADME, organism-based. The following applies: in vivo.
Data set [18] can be described thus: Half life in po dosed rat. Format: ADME, organism-based. The following applies: in vivo.
Data set [19] can be described thus: Half life in iv dosed mouse. Format: ADME, organism-based. The following applies: in vivo.
Data set [20] can be described thus: Half life in iv dosed rat. The settings on record: in vivo. Format: ADME, organism-based.
Data set [21] is described as follows: Cmax in mouse. Format: ADME, organism-based. The settings on record: in vivo.
The nature of data set [22]: Cmax in rat. Format: ADME. The settings on record: in vivo.
Data set [23] in a line: Clearance in mouse. Format: ADME, organism-based. The following applies: in vivo.
A short description of data set [24]: Volume of distribution at steady state in rat. Format: ADME. The following applies: in vivo, read-out: Vdss.
Data set [25] in a line: Volume of distribution at steady state in mouse. Format: ADME, organism-based. The following applies: in vivo, read-out: Vdss.
Data set [26] can be described thus: Clearance in rat. Format: ADME. The settings on record: in vivo.
Data set [27] can be described thus: Unbound partition coefficient of the compound in rat incubated for 8 hrs. Format: ADME. The following applies: brain, read-out: K(p,uu,brain).
Data set [28] can be described thus: Unbound partition coefficient of the compound in mouse incubated for 8 hrs. Format: ADME. The following applies: brain, read-out: K(p,uu,brain).
Data set [29] can be described thus: Protein binding in cynomolgus monkey assessed as unbound fraction. Format: ADME, Macaca fascicularis.
Data set [30] in a line: Oral bioavailability in cynomolgus monkey. Format: ADME, organism-based, Macaca fascicularis. The following applies: in vivo, dose 10 mg/kg.
The nature of data set [31]: Half life in po dosed cynomolgus monkey. The following applies: in vivo. Format: ADME, organism-based, Macaca fascicularis.
The nature of data set [32]: Half life in iv dosed cynomolgus monkey. The following applies: in vivo. Format: ADME, organism-based, Macaca fascicularis.
Data set [33] is described as follows: Cmax in cynomolgus monkey. The following applies: in vivo. Format: ADME, Macaca fascicularis.
A short description of data set [34]: Volume of distribution at steady state in cynomolgus monkey. Format: ADME, Macaca fascicularis. The following applies: in vivo, read-out: Vdss.
Data set [35] can be described thus: Clearance in cynomolgus monkey. Format: ADME, Macaca fascicularis. The following applies: in vivo, dose 1 mg/kg.
Data set [36] is described as follows: Unbound partition coefficient of the compound in cynomolgus monkey incubated for 8 hrs. Format: ADME, cell-free, Macaca fascicularis, Brain/Plasma. The settings on record: brain, read-out: K(p,uu,brain).

We go through 28 compounds from ChEMBL document CHEMBL4819154, “Discovery of quinuclidine modulators of cellular progranulin” (Bioorg Med Chem Lett, 2021).

Values after ≈ are worked out from the molar mass of the structure shown.

Muscarinic acetylcholine receptor M3, sequence (P20309 whole entry): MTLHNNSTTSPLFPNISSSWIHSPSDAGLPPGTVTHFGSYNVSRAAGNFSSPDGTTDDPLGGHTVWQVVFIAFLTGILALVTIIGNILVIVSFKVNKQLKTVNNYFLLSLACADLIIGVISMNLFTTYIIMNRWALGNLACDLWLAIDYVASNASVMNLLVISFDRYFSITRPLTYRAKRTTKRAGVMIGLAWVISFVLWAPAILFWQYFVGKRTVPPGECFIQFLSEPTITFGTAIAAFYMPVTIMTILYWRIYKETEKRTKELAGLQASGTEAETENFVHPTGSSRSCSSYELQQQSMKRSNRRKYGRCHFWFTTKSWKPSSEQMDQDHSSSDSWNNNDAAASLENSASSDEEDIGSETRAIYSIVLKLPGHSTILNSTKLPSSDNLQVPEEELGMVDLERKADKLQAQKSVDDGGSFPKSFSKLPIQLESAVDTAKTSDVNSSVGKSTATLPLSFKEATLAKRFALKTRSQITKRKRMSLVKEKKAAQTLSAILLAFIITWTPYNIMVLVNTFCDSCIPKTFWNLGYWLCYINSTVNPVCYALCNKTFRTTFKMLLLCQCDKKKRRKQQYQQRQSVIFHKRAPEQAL

`O=C(OCC1CN2CCC1CC2)N1CCc2ccccc2[C@@H]1c1ccc(F)cc1` (some centres undefined) showed an EC50 in data set [1] of 1990 nM.
On the same count and under the same terms, under `O=C(OC1CN2CCC1CC2)N1CCc2ccccc2[C@@H]1c1ccc(OC(F)(F)F)cc1` (some centres undefined) stands 2600 nM; under `O=S(=O)(CC1CN2CCC1CC2)N1CCc2ccccc2[C@@H]1c1ccc(F)cc1` (some centres undefined), 1700 nM.
Compound `CS(=O)(=O)c1ccc([C@H]2c3ccccc3CCN2C(=O)OC2CN3CCC2CC3)cc1` (some centres undefined) returned an EC50 in [1] of more than 10000 nM.
Compound `O=S(=O)(NC1CN2CCC1CC2)N1CCc2ccccc2[C@@H]1c1ccc(F)cc1` (some centres undefined) returned an EC50 in [1] of more than 10000 nM.
Turning to `O=C(OC1CN2CCC1CC2)N1CCc2ccccc2[C@@H]1c1ccc(F)cc1` (some centres undefined), the bioavailability in [2] turned out to be 16%; in data set [3], 64%. Further, the results for the CLH in data set [4] and in data set [5] were 0.023 mL/min/kg and 0.0698 mL/min/kg, respectively. The fraction unbound amounted to 0.06 in [6]; 0.02 in [10]; 0.086 in data set [11]; 0.008 in data set [12]; 0.008 in [13]. In [1], the EC50 amounted to 257 nM. Also, 17000 nM corresponded to half-maximal inhibition in [7] (IC50). Moreover, the Papp A→B in data set [8] was 7.59 ×10⁻⁶ cm/s. Besides, in [9], the concentration in solution (solubility) was 1990 µM (≈ 757 µg/mL). The half-life in data set [14] was 29 min; in data set [15], 10 min; in data set [16], more than 240 min; in data set [17] it was 4.1 min; in data set [18], 2.1 min; in data set [19], 2.1 min. Moreover, in data set [20], the half-life amounted to 1.9 min. The figures for the Cmax in data set [21] and in [22] were 28 nM and 37 nM, respectively. Moreover, the clearance in data set [23] is 44.2 mL/min/kg; in data set [26] it was 198 mL/min/kg. The Vd in data set [24] is 4.65 L/kg; in data set [25], 4.91 L/kg. The results for the Kp uu at 8 h in data set [27] and in [28] were 0.26 and 1.08, respectively.
Compound `O=C(OC1CN2CCC1CC2)N1CCc2ccccc2[C@@H]1c1cccc(F)c1` (some centres undefined) yielded an EC50 in data set [1] of 3550 nM.
Same read-out and setting: under `O=C(OC1CN2CCC1CC2)N1CCc2ccccc2[C@@H]1c1cccc(F)c1F` (some centres undefined) stands 1110 nM.
For `O=C(NC1CN2CCC1CC2)N1CCc2ccccc2[C@@H]1c1ccc(F)cc1` (some centres undefined), a half-maximal response in data set [1] (EC50) required 265 nM. The same compound yielded an IC50 in data set [7] of 10000 nM. In data set [8], the Papp A→B was determined as 0.95 ×10⁻⁶ cm/s. In data set [9], the concentration in solution (solubility) came to 5960 µM (≈ 2260 µg/mL).
As for `O=C(OCCC12CCN(CC1)CC2)N1CCc2ccccc2[C@@H]1c1ccc(F)cc1`, in [1], the EC50 is more than 10000 nM.
Still for that read-out and setting: in the case of `O=C(NC1CN2CCC1CC2)C(=O)N1CCc2ccccc2[C@@H]1c1ccc(F)cc1` (some centres undefined) it was 1610 nM; in that of `O=C(COC1CN2CCC1CC2)N1CCc2ccccc2[C@@H]1c1ccc(F)cc1` (some centres undefined), 811 nM.
`O=C(OC1CN2CCC1CC2)N1CCc2ccccc2[C@@H]1c1ccc(Cl)cc1` (some centres undefined) yielded an EC50 in data set [1] of 339 nM. In [7], this compound displayed an IC50 of 1480 nM.
With `O=C(OC1CN2CCC1CC2)N1CCc2ccccc2[C@@H]1c1ccc(OC2CC2)cc1` (some centres undefined), in data set [1], the EC50 is more than 10000 nM.
On the same count and under the same terms, in the case of `CC1(C)C(OC(=O)N2CCc3ccccc3[C@@H]2c2ccc(F)cc2)C2CCN1CC2` (some centres undefined) it was 574 nM.
`O=C(OC1CN2CCC1CC2)N1CCc2ccccc2[C@@H]1c1ccc(F)c(F)c1` (some centres undefined) returned an EC50 in data set [1] of 2030 nM. In data set [7], half-maximal inhibition (IC50) required 10000 nM.
In [1], `CN(C(=O)N1CCc2ccccc2[C@@H]1c1ccc(F)cc1)C1CN2CCC1CC2` (some centres undefined) yielded an EC50 of 1030 nM.
The compound `C[C@]1(c2ccc(F)cc2)c2ccccc2CCN1C(=O)OC1CN2CCC1CC2` (some centres undefined) gave an EC50 in data set [1] of 3460 nM.
`Fc1ccc([C@@H]2c3ccccc3CCN2CCC2CN3CCC2CC3)cc1` (some centres undefined): the EC50 in [1] was more than 10000 nM.
Regarding `O=C(OCC12CCN(CC1)CC2)N1CCc2ccccc2[C@H]1c1ccc(F)cc1`, the bioavailability was 16% in data set [2], 41% in data set [3] and 42% in data set [30]. For the same compound, the results for the CLH in data set [4] and in data set [5] were 0.0397 mL/min/kg and 0.0318 mL/min/kg, respectively. The fraction unbound in data set [6] is 0.086; in data set [29], 0.176; in [10] it was 0.048; in data set [11], 0.096; in data set [12], 0.008; in data set [13], 0.007. The EC50 in [1] is 146 nM. Besides, the Papp A→B in data set [8] turned out to be 3.01 ×10⁻⁶ cm/s. In data set [9], the solubility turned out to be 2670 µM (≈ 1050 µg/mL). Besides, the half-life in [14] amounted to 17 min; in [15], 22 min; in data set [16], 198 min; in data set [17], 2.9 min; in [18], 5.2 min; in data set [31], 6.8 min. Also, the half-life in data set [19] is 2.2 min; in data set [20], 2.2 min; in data set [32], 6.4 min. For the same compound, the Cmax in [21] was found to be 30 nM; in data set [22], 17 nM; in data set [33], 32 nM. Further, the clearance in [23] is 51.8 mL/min/kg; in [26], 102 mL/min/kg; in data set [35], 20.7 mL/min/kg. For the same compound, the Vd amounted to 16.2 L/kg in data set [24], 7.23 L/kg in [25] and 9.6 L/kg in [34]. Besides, the Kp uu at 8 h came out at 0.4 in data set [27], 0.09 in [28] and 0.33 in [36].
As to `O=C(OC1CN2CCC1CC2)N1CCc2ccccc2[C@H]1c1ccc(F)cc1` (some centres undefined), the EC50 in [1] is more than 10000 nM.
With `COc1ccc([C@H]2c3ccccc3CCN2C(=O)OC2CN3CCC2CC3)cc1` (some centres undefined), the EC50 in data set [1] came to 2870 nM.
`O=C(CC1CN2CCC1CC2)N1CCc2ccccc2[C@@H]1c1ccc(F)cc1` (some centres undefined): the EC50 in [1] was found to be 222 nM. This compound also showed an IC50 in data set [7] of 30000 nM. Further, in [8], the Papp A→B was determined as 2.68 ×10⁻⁶ cm/s.
As to `O=C(OC1CN2CCC1CC2)N1CCc2ccccc2[C@@H]1c1ccc(F)cc1F` (some centres undefined), the response in data set [1] was half-maximal at 247 nM (EC50). This compound also gave an IC50 in data set [7] of 9400 nM.
`O=C(C(O)C1CN2CCC1CC2)N1CCc2ccccc2[C@@H]1c1ccc(F)cc1` (some centres undefined) yielded an EC50 in data set [1] of 895 nM.
Take `O=C(O[C@@H]1CN2CCC1CC2)N1CCc2ccccc2[C@@H]1c1ccccc1`: in [1], the EC50 was found to be 1830 nM. It took 733 nM to reach half-maximal inhibition in data set [7] (IC50).
In data set [1], `O=C(OC1CN2CCC1(F)CC2)N1CCc2ccccc2C1c1ccc(F)cc1` (single isomer, unassigned) yielded an EC50 of 1250 nM.
In data set [1], `O=C(O[C@H]1CN2CCC1CC2)N1CCc2ccccc2[C@@H]1c1ccccc1` [SOLIFENACIN] yielded an EC50 of 1300 nM. This compound also registered an IC50 in data set [7] of 24 nM.
